Test results published in patent EP1038533A1, “MEDICINAL COMPOSITIONS FOR TREATING IMMUNODEFICIENCY DISEASES” (Nippon Kayaku Kabushiki Kaisha, priority 1997, dated 1999).

Tested on: HIV (human immunodeficiency virus)
Assay: Test Example 2: clinical administration of 15-deoxyspergualin injection to five HIV positive carriers
Assay type: in vivo
Conditions: 0.15 mg/kg body weight/day i.v. 14 days per course
Method: The therapeutic effect of 15-deoxyspergualin for immunodeficiency was clinically investigated by administering the compound to HIV-infected patients. The details are shown below.
To five (5) carriers diagnosed as HIV positive, the 15-deoxyspergualin injection was intravenously administered for consecutive 14 days in a dose of 0.15 mg/kg body weight/day. This cycle was made one course. Then, no drug period was set for 6 weeks followed by repetition with 2 courses with the same interval between the second course and the third course, as well. The CD4^+ cell count, CD4^+ /CD8^+ level and virus load, etc. were measured immediately before and after each course and 6 weeks after the completion of Course 3, respectively.

[1] = Case 1, 6 Weeks after completion of Course 3
[2] = Case 1, Immediately after Course 1
[3] = Case 1, Immediately after Course 2
[4] = Case 1, Immediately after Course 3
[5] = Case 1, Immediately before Course 1 (before treatment)
[6] = Case 1, Immediately before Course 2
[7] = Case 1, Immediately before Course 3
[8] = Case 2, 6 Weeks after completion of Course 3
[9] = Case 2, Immediately after Course 1
[10] = Case 2, Immediately after Course 2
[11] = Case 2, Immediately after Course 3
[12] = Case 2, Immediately before Course 1 (before treatment)
[13] = Case 2, Immediately before Course 2
[14] = Case 2, Immediately before Course 3
[15] = Case 3, 6 Weeks after completion of Course 3
[16] = Case 3, Immediately after Course 1
[17] = Case 3, Immediately after Course 2
[18] = Case 3, Immediately after Course 3
[19] = Case 3, Immediately before Course 1 (before treatment)
[20] = Case 3, Immediately before Course 2

## N=C(N)NCCCCCCC(=O)NC(O)C(=O)NCCCCNCCCN (centres unmarked) [15-deoxyspergualin]
[1]
  CD4^+ T cell counts: 760 µL⁻¹
  CD4^+/CD8^+ levels: 0.93
  Virus loads: 6000 particles/ml
[2]
  CD4^+ T cell counts: 680 µL⁻¹
  CD4^+/CD8^+ levels: 0.82
  Virus loads: 8600 particles/ml
[3]
  CD4^+ T cell counts: 740 µL⁻¹
  CD4^+/CD8^+ levels: 0.86
  Virus loads: 8000 particles/ml
[4]
  CD4^+ T cell counts: 750 µL⁻¹
  CD4^+/CD8^+ levels: 0.93
  Virus loads: 7000 particles/ml
[5]
  CD4^+ T cell counts: 680 µL⁻¹
  CD4^+/CD8^+ levels: 0.78
  Virus loads: 12000 particles/ml
[6]
  CD4^+ T cell counts: 730 µL⁻¹
  CD4^+/CD8^+ levels: 0.80
  Virus loads: 9000 particles/ml
[7]
  CD4^+ T cell counts: 720 µL⁻¹
  CD4^+/CD8^+ levels: 0.85
  Virus loads: 8200 particles/ml
[8]
  CD4^+ T cell counts: 740 µL⁻¹
  CD4^+/CD8^+ levels: 0.78
  Virus loads: 13000 particles/ml
[9]
  CD4^+ T cell counts: 740 µL⁻¹
  CD4^+/CD8^+ levels: 0.72
  Virus loads: 13000 particles/ml
[10]
  CD4^+ T cell counts: 730 µL⁻¹
  CD4^+/CD8^+ levels: 0.77
  Virus loads: 14000 particles/ml
[11]
  CD4^+ T cell counts: 750 µL⁻¹
  CD4^+/CD8^+ levels: 0.79
  Virus loads: 14000 particles/ml
[12]
  CD4^+ T cell counts: 750 µL⁻¹
  CD4^+/CD8^+ levels: 0.76
  Virus loads: 15000 particles/ml
[13]
  CD4^+ T cell counts: 750 µL⁻¹
  CD4^+/CD8^+ levels: 0.78
  Virus loads: 13000 particles/ml
[14]
  CD4^+ T cell counts: 760 µL⁻¹
  CD4^+/CD8^+ levels: 0.80
  Virus loads: 15000 particles/ml
[15]
  CD4^+ T cell counts: 800 µL⁻¹
  CD4^+/CD8^+ levels: 0.90
  Virus loads: 6000 particles/ml
[16]
  CD4^+ T cell counts: 570 µL⁻¹
  CD4^+/CD8^+ levels: 0.73
  Virus loads: 11000 particles/ml
[17]
  CD4^+ T cell counts: 600 µL⁻¹
  CD4^+/CD8^+ levels: 0.75
  Virus loads: 7000 particles/ml
[18]
  CD4^+ T cell counts: 720 µL⁻¹
  CD4^+/CD8^+ levels: 0.90
  Virus loads: 6000 particles/ml
[19]
  CD4^+ T cell counts: 550 µL⁻¹
  CD4^+/CD8^+ levels: 0.69
  Virus loads: 17000 particles/ml
[20]
  CD4^+ T cell counts: 590 µL⁻¹
  CD4^+/CD8^+ levels: 0.72
